In US20240263127A1, “CRYOPROTECTIVE COMPOSITIONS AND USES THEREOF” (DUPONT NUTRITION BIOSCIENCES APS, priority 2010, published 2024):
Like-named read-outs stand apart in the source and are kept apart here.

Key:
[1] = test system: Lactobacillus acidophilus; assay: Viable cell count after freeze drying with cryoprotectant; format: cell-based; settings: for Recovery of viable cell from frozen pellets to freeze dried pellets: Example 2
Method: (§1) The cell count of the freeze dried material has been evaluated through a typical bacteria enumeration method used for lactic acid bacteria. In this method, the freeze dried bacteria were suspended into a MRS solution with a stomacher and revitalized in that solution for 30 minutes. The suspension was then successively diluted in bottles of peptone buffer and finally cultured on a MRS nutritive media for 48 to 72 hours at 38° C. under anaerobic condition. During that period, the bacteria form colonies on the nutritive media. Those colonies were counted and results were expressed as Colony Forming Units (CFU) per gram. Various cryoprotectants (see table 1) were mixed in a suspension containing, Lactobacillus acidophilus at an approximate cell count of 1E11 CFU/gr. The mixture, called stabilized concentrate, was kept at 4-8° C. for 1.5 hrs and continuously agitated before being frozen by dispensing droplets of the stabilized concentrate into liquid nitrogen. The resulting frozen droplets are called frozen pellets. The frozen pellets were freeze dried in a Virtis® freeze drier at 100 mT and a cell count measurement was performed just after freeze drying by performing an accelerated stability test. Various ratio of Inositol over Trehalose have been tested. The cryoprotectants were mixed for 1 to 3 hrs at 10-30° C. to a suspension containing Lactobacillus acidophilus at an approximate cell count of 1E11 CFU/gr. The mixture was frozen and freeze dried, and a cell count was performed just after freeze drying by performing an accelerated stability test, as disclosed in Example 1.

[2] = test system: Lactobacillus acidophilus; format: cell-based; settings: for Viable cell counts after accelerated stability test: L. acidophilus; for Recovery of viable cell after accelerated stability test: Lactobacillus acidophilus, 14 days
Method: as §1, with “gram. Long term stability of freeze dried bacteria as a function of time is a critical characteristic for commercial application. The long term stability can be evaluated by accelerated stability test consisting of placing the freeze dried cells into a sealed laminated aluminum foil in a constant temperature chamber maintained at 38° C. for fourteen days. The cell count of the freeze dried material is measured before and after the exposure to elevated temperature. A recovery rate of cells is calculated by subtracting the cells measured after the accelerated stability test from the initial cells measurement and dividing the subtraction results by the initial count. The accelerated stability test recovery rate gives a relative estimate of the long term cell stability.” for “gram.”

[3] = L. acidophilus, Example 2, Trehalose/Inositol ratios
[4] = 38° C. for fourteen days, Example 2
[5] = L. acidophilus suspension approx. 1E11 CFU/gr, freeze dried at 100 mT, Example 1
[6] = freeze dried cells 38° C. for fourteen days, Example 1

SMILES | Recovery of viable cell from frozen pellets to freeze dried pellets ([1]; L. acidophilus) [%] | Viable cell counts after freeze drying [1, 3] [CFU/gr] | Recovery of viable cells after accelerated stability test [2] [%] | Viable cell counts after accelerated stability test [2, 4] [CFU/gr] | Viable cell counts after freeze drying [1, 5] [CFU/gr] | Viable cell counts after accelerated stability test [2, 6] [CFU/gr] | Recovery of viable cell after accelerated stability test [2] [%]
O[C@H]1[C@H](O)[C@@H](O)[C@H](O)[C@@H](O)[C@H]1O [Trehalose 0.0 / Inositol 20.0, Inositol] | 94.7 | 3.70E+11 | 65.41 | 2.42E+11 |  |  | 
OC[C@H]1O[C@H](O[C@H]2O[C@H](CO)[C@@H](O)[C@H](O)[C@H]2O)[C@H](O)[C@@H](O)[C@@H]1O [Trehalose alone experiment 1, Trehalose] |  |  |  |  | 7.4E+11 | 2.2E+11 | 29.0
O[C@H]1[C@H](O)[C@@H](O)[C@H](O)[C@@H](O)[C@H]1O [Trehalose 0.0 / Inositol 9.1, Inositol] | 81.2 | 5.14E+11 | 72.37 | 3.72E+11 |  |  | 
O[C@H]1[C@H](O)[C@@H](O)[C@H](O)[C@@H](O)[C@H]1O [Inositol alone, Inositol] |  |  |  |  | 3.2E+11 | 1.3E+11 | 41.0
OC[C@H]1O[C@H](O[C@H]2O[C@H](CO)[C@@H](O)[C@H](O)[C@H]2O)[C@H](O)[C@@H](O)[C@@H]1O [Trehalose alone experiment 2, Trehalose] |  |  |  |  | 6.6E+11 | 2.4E+11 | 38.0
